pIC50: −log10 of the molar value. Like-named read-outs stand apart in the source and are kept apart here.
What was measured:
[1] = system: sympathetic ganglion neurons (SG); assay: Survival of chick embryonic sympathetic ganglion neurons; type: cell-based
Protocol: (§1) Paravertebral sympathetic ganglia (SG; embryonal day 12 (E12)), dorsal root ganglia (DRG;E9), and ciliary ganglia (CG;E8) were dissected from chick embryos at the indicated embryonic day as described in Lindsay, et al., Dev. Biol., 1985, 112, 319-328, which is incorporated herein by reference in its entirety. After trypsinization and dissociation, the nerve cell suspensions were plated onto polyomithine-laminin-coated culture dishes in Ham's F14 culture medium, supplemented with 10% horse serum. Immediately after plating, survival factors were added at the following concentrations: Nerve growth factor (NGF), 20 ng/ml; ciliary neutrophic factor (CNTF), 10 ng/ml. The cultures were maintained at 37° and 5% CO2 in a humidified environment.
Neurons were plated in 35 mm culture dishes with grids (Nunc). Selected areas of each dish comprising together about 10% of the surface scanned for the presence of phase bright cells immediately after plating and again after 48 h to assess survival percentages. Cell survival was confirmed by vital staining with trypan blue (not shown).

[2] = system: dorsal root ganglion sensory neurons (DRG); assay: Survival of chick embryonic dorsal root ganglion sensory neurons; type: cell-based
Protocol: as §1
Neurons were plated in 35 mm culture dishes with grids (Nunc). […] Cell survival was confirmed by vital staining with trypan blue (not shown).

[3] = system: intact embryonic dorsal root ganglia; assay: Neurite outgrowth from intact dorsal root ganglia; type: cell-based, chick; details: 250 nM Compound III-3 or 20 ng/ml NGF; 48 h
Protocol: Ganglia were placed in 96 well plates previously coated with poly-1-omithine and laminin (5 µg each/ml phosphate buffered saline) in serum-free N2 medium (Bottenstein, et al., Proc. Natl. Acad. Sci. USA, 1979, 76, 514-517, which is incorporated herein by reference in its entirety) containing 0.05% bovine serum albumin (BSA) and maintained for 48 h at 37° and 5% CO2 in a humidified environment. Treated ganglia received either 250 nM Compound III-3 or 20 ng/ml NGF 2 h after plating.

SNB motor neurons = assay: Developmentally regulated motor neuronal death in the neonatal rat (SNB); type: in vivo
Protocol: Untimed pregnant Sprague-Dawley rats were obtained from Harlan Laboratories (Indianapolis, IN). Female rat pups were injected daily, subcutaneously (SC), over the target perineal muscles, with Compound III-3 in 5% Solutol ™ HS 15 or vehicle along starting on the day of birth (P1) and continuing for 5 days (P5). On P10 or P60, pups were decapitated, blood was collected in heparinized capillary tubes, and the region of the spinal cord containing the sexually dimorphic spinal nucleus of the bulbocavemosus (SNB) and the perineal area containing the bulbocavernosus (BC) and levator ani (LA) muscles were dissected after perfusion of the animals with saline/formalin. The region of the spinal cord containing the SNB was postfixed, embedded in Paraplast, sectioned at 10µm, and stained with Cresylecht violet (Nordeen, et al., Science, 1985, 229, 671-673, which is incorporated herein by reference in its entirety). Motor neurons were counted at X500 in serial sections from the lumbar 5 to the sacral 1 region of the spinal cord as described previously (Nordeen, et al., supra). The microscopic enumeration was made on coded sections by an observer blinded to the treatment groups. Motor neuron counts were corrected for cell size and section thickness (Konisgsmark, Contemporary Research Methods in Neuroanatomy, Nauta & Ebbesson, Eds., 1970, Springer-Verlag, New York, pp.315-340, which is incorporated herein by reference in its entirety) and statistical analysis was by one-way analysis ofvariance (ANOVA). Perineal musculature was postfixed, decalcified, embedded in Paraplast, sectioned at I 0µm and stained with Milligan's Trichrome. […] The outline of muscle tissue was traced from alternate sections using a projection microscope (62.5), and the cross-sectional area was measured using a digitizing pad and a computer-based morphometry system (Sigmascan, Jandel Scientific). Muscle volume was calculated by talking the total cross-sectional area and multiplying it by the section thickness, and corrected for the percentage of the structure sampled.

[4] = system: substantia nigra tyrosine hydroxylase immunoreactive neurons; assay: MPTP model: substantia nigra tyrosine hydroxylase immunoreactive neurons; type: in vivo, mice; details: MPTP 40 mg/kg; systemically administered (Fig. 22a)
Protocol: MPTP was administered at a dose (40 mg/kg) that produces loss of striatal dopaminergic terminals and cell bodies in the substantia nigra. Tyrosine hydroxylase was used as a marker for dopamenergic nerve terminals in the substantia nigra. […] Since Compound III-3 is a known inhibitor of MLK3, activation of a downstream substrate of MLK3 was measured in MPTP- treated mice. Levels of phosphorylated MKK4 were measured using a phospho-MKK4 specific antibody (New England Biolabs, Beverly, MA) that recognizes the monophosphorylated form of MKK4 by either immunoblot (Fig. 22b) or ELISA (Fig. 22c). MPTP administration elevated levels of phosphorylated MKK4 in the substantia nigra by up to 5 fold over control levels (Fig. 22b). Peak elevations occurred 4 hrs after administration ofMPTP and coincided with peak CNS levels of MPP^+.

TNF-α = assay: Induction of TNF-α by LPS in THP-1 cells (ELISA); type: cell-based; details: Homo sapiens
Protocol: (§2) THP-1 cells were grown in RPMI 1640 medium supplemented with 10% fetal bovine serum. LPS (E.coli serotype 0111.B4, TCA extracted) was purchased from Sigma and dissolved in PBS. ELISA kits for assaying IL-1 and TNF-α were purchased from Boerhinger-Mannheim and assays on THP-1 culture medium were performed as directed by the manufacturer. Standard curves according to directions were obtained with each assay.
(§3) Experiments were performed in 12 well culture plates with either 1 or 2 ml of THP-1 cells at 4 X 10^5 cells/ml. IL-1 and TNF-α were induced by the addition of LPS to the culture medium and the medium collected at various times thereafter for cytokine assay. Cells were removed by centrifugation and the supernatants frozen at -70°C until assay. To minimize costs experiments were performed in duplicate cultures and the duplicate supernatants were pooled after centrifugation. Each pooled supernatant was assayed in duplicate. Stock solutions of indolo- and fused pyrrolocarbazoles in 100% DMSO were diluted to the desired concentrations in either medium containing 10% fetal bovine serum or in medium containing 0.5 mg/ml BSA. Unless otherwise stated, compounds were added to the THP-1 cells 1 hr prior to the addition of LPS.

IL-1 = assay: Induction of IL-1 by LPS in THP-1 cells (ELISA); type: cell-based
Protocol: as §2, §3

For `CCSCc1ccc2c(c1)c1c3c(c4c5cc(CSCC)ccc5n5c4c1n2C1CC(O)(C(=O)OC)C5(C)O1)CNC3=O` (stereo not drawn) [III-3], the “concentration at which the survival effect reached a plateau” value ([1]; 10% serum (Fig. 16)) was “around 1 µM”, the SG neurons alive ([1]; after 48 h, Compound III-3 1 µM, NGF 20 ng/ml, 10% serum) was 94% and the SG survival ([1]; after four days) was 83%. For the same compound, the “concentration at which the survival effect reached a plateau” value ([2]; 10% serum (Fig. 16)) was “around 1 µM”, the DRG survival ([2]; after four days) was 52% and the “neurite outgrowth from intact dorsal root ganglia” value [3] was “Neurites grew”. The “rescued motor neurons identifiable morphologically 55 days after the last treatment” value (SNB motor neurons; 0.5 and 1 mg/kg per day PN 1-5, sacrifice at PN60) was 100%, the “enhancement in motor-neuronal survival” value (SNB motor neurons; 0.5 and 1 mg/kg per day sc, PN 1-5, female rats) was 70% and the “weight loss, mortality, gross tissue damage” value (SNB motor neurons; SNB model) was “no associated weight loss, mortality, or gross tissue damage”. For the same compound, the “loss of substantia nigra tyrosine hydroxylase immunoreactive neurons after MPTP lesion” value [4] was “attenuated the loss”, the pIC50 (TNF-α; THP-1, LPS 2 µg/ml, serum-free medium, read-out: THP-1 Cells TNF-α IC50) was 7.54 and the pIC50 (TNF-α; THP-1 cells, medium containing 10% fetal bovine serum, read-out: IC50 inhibition of the induction of TNF-α) was 6.86. It also gave a pIC50 (IL-1; Homo sapiens, THP-1, THP-1 cells, medium containing 10% fetal bovine serum, read-out: IC50 inhibition of the induction of IL-1) of 6.57, a pIC50 (IL-1; Homo sapiens, THP-1, THP-1 cells, serum-free medium (500 µg/ml BSA), cytokine not named, read-out: IC50 in serum-free medium) of 7.64 and a pIC50 (IL-1; THP-1 cells, medium containing 10% fetal bovine serum, read-out: IC50 inhibition of the induction of IL-1) of 6.57.
